Assay results as given in the METLIN SMRT retention time set (Domingo-Almenara et al. 2019).

experiment: gradient 5% acetonitrile 3 min, to 50% in 2 min, to 85% in 15 min, held 3 min, 100 µL/min; conditions: column: Zorbax Extend-C18 2.1 x 50 mm; eluents: water / acetonitrile, 0.1% formic acid
Method in brief: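 Mixtures of ~100 pure standards were chromatographed on a Zorbax Extend-C18 column (2.1 × 50 mm, 1.8 μm) at 100 μL/min using water and acetonitrile, each with 0.1% formic acid. Detection used a quadrupole time-of-flight mass spectrometer in positive and negative ionization mode, and data collection spanned 3 months. Retention time was obtained from adduct peaks picked computationally and each checked manually.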

Row | RP-LC retention time [s] | Structure (SMILES)
1 | 855 | CCN1C(=O)c2cccnc2Sc2cc(NC(=O)CCc3ccc(OC)cc3)ccc21
2 | 916 | Cc1cc(C)cc(N2CCC(NC(=O)c3sccc3C)C2=O)c1 (stereo not drawn)
3 | 618 | COc1ccc(C(=O)OCCN2CCN(C3=NS(=O)(=O)c4ccccc43)CC2)cc1OC
4 | 753 | CCOCCCNC(=O)CCc1nnc2c3cc(-c4ccc(C)c(C)c4)nn3ccn12
5 | 791 | CCOc1ccc(C(=O)NCc2ccc3c(c2)Sc2ncccc2C(=O)N3CC)cc1
6 | 1040 | CC1Oc2ccc(-c3csc(NC(=O)c4ccc(Cl)cc4)n3)cc2N(C)C1=O (stereo not drawn)
7 | 829 | CC(=O)N1CCCc2cc(S(=O)(=O)CCC(=O)Nc3ccc(Br)cc3C)ccc21
8 | 964 | Cc1cc2nnc(SCC(=O)Nc3nc(-c4ccccc4)cs3)n2c2ccccc12
9 | 1270 | CCn1nccc1-c1cccc(-c2noc(-c3ccc(F)c(F)c3)n2)c1
10 | 755 | CC1CCN(CCNS(=O)(=O)c2ccccc2-c2nc(-c3cccc(F)c3)no2)CC1
11 | 1030 | Cc1cc(C(=O)NCCCSC2CCCCC2)n(-c2ccccc2)n1
12 | 1020 | CCOc1ccccc1NC(=O)c1sc(N2CCCC2=O)nc1CC
13 | 614 | CNC(=O)N1CCc2nn(Cc3ccccc3)c(=O)n2CC1
14 | 712 | CC(=O)N1CCC(C(=O)Nc2ccc(OCc3nnc(-c4ccccc4)o3)cc2)CC1
15 | 755 | CCC(C)NC(=O)Cn1c(=O)cc(-c2nc(C)no2)c2ccccc21 (stereo not drawn)
16 | 671 | CCN(CC)C(=O)c1ccc(-c2nc3cc(NS(=O)(=O)c4ccccc4)ccc3n2C)cc1
17 | 1030 | CCOc1ccccc1-c1noc(Cn2c(=O)n(-c3ccc(Cl)cc3)c(=O)c3sccc32)n1
18 | 777 | COc1ccc(NC(=O)N2CCC(C(=O)NCc3csc(-c4ccccc4)n3)CC2)c(OC)c1
19 | 1090 | COc1ccc(C)cc1NC(=O)Cn1cnc2c(sc3nc(-c4ccccc4)ccc32)c1=O

Row | RP-LC retention time [s] | Structure (SMILES)
20 | 1040 | Cc1ccc(NC(=O)C2(C)Oc3cccnc3N(C(C)C)C2=O)c(C)c1 (stereo not drawn)
21 | 620 | Cc1ccccc1NC(=O)Cc1cn2cc(Cl)ccc2n1
22 | 880 | COc1ccc2[nH]c(C(=O)Nc3ccccc3)cc2c1
23 | 699 | Cc1nc(-c2cccc(-c3noc(C(=O)NCCCN4CCC(C)CC4)n3)c2)cs1
24 | 1040 | COc1ccc(NC(=O)Cn2c(C)nc3c(sc4nc(-c5ccccc5)ccc43)c2=O)c(OC)c1
25 | 759 | Cc1cc(C)cc(NC(=O)Cn2c(C(C)C)nc3c(c2=O)CCN(Cc2ccccc2)C3)c1
26 | 901 | CCC(=O)N1CCc2c([nH]c3ccc(Cl)cc23)C12C(=O)N(C)c1ccccc12 (stereo not drawn)
27 | 1080 | CC(=O)Nc1ccc2c(c1)CN(C(=O)Cc1ccccc1F)C(C(=O)N(C)C)C2 (stereo not drawn)
28 | 787 | Cc1cc(C)c(-c2noc(C)n2)c(NC(=O)c2cc(F)cc(F)c2)n1
29 | 633 | Cc1nnc(C2CCCN(C(=O)Cn3c(=O)oc4ccccc43)C2)s1 (stereo not drawn)
30 | 743 | COc1ccc(N2CCN(C(=O)Cn3ccc4c(SCc5ccccc5)nccc43)CC2)cc1
31 | 843 | CCC(C)NC(=O)N1CCCN(C2=NS(=O)(=O)C(c3ccc(C)c(C)c3)=C2C)CC1 (stereo not drawn)
32 | 712 | CCc1cccc(C)c1Nc1c(-c2cccc(O)c2)nc2nc(C)cc(C)n12
33 | 902 | CCn1ccc2c(cc(C(=O)Nc3ccc(C(C)C)cc3)n2C)c1=O
34 | 757 | Cc1ccc(CNC(=O)N2CCC3(CC2)NC(=O)c2ccccc2O3)cc1
35 | 1070 | Cc1nn(C(C)C(=O)NCCc2ccccc2)c(=O)c2c(-n3cccc3)n(-c3ccccc3)nc12 (stereo not drawn)
36 | 761 | Cc1noc(-c2nn(C)c3c2CN(C(=O)NCc2ccccc2)CC3)n1
37 | 626 | CC(C)CCNC(=O)N(C)Cc1nc2cc(C(=O)NC(C)C)ccc2n1C

More lines, now with the values behind:

Row | Structure (SMILES) | RP-LC retention time [s]
38 | Cc1ccnc(N2CCCC(C(=O)N3CCC(C(N)=O)(N4CCCCC4)CC3)C2)n1 (stereo not drawn) | 542
39 | O=C(Nc1cccc(C(F)(F)F)c1)N1C[C@H]2C[C@H](C1)[C@H]1CCCC(=O)N1C2 | 731
40 | CC(=O)N1CCC(c2nc(C)c(C(=O)O)s2)CC1 | 588
41 | CCCCN1CCN(C(=O)C2c3ccccc3CCN2C(C)=O)CC1 (stereo not drawn) | 585
42 | Fc1ccc(C(OCCN2CCN(C/C=C/c3ccccc3)CC2)c2ccc(F)cc2)cc1 | 916
43 | Cc1ccc(F)cc1S(=O)(=O)N1CCC(n2cnnc2C2CC2)CC1 | 734
44 | Cc1ccc(NC(=O)N2CCC(n3c(-c4ccoc4)nc4cccnc43)C2)cc1C (stereo not drawn) | 762
45 | Cc1oc(C2CCN(S(=O)(=O)c3cc(F)ccc3F)CC2)nc1C(=O)N1CCCC1 | 926
46 | O=C(O)C1CCN(c2nc3ccc(-c4ccncc4)nc3s2)CC1 | 588
47 | Cc1ccc(CNC(=O)C2CCCCC(=O)N2C)o1 (stereo not drawn) | 644
48 | O=C(NCc1ccc(Cl)cc1)c1ccc2ccnc(N3CCN(C(=O)c4ccco4)CC3)c2c1 | 739
49 | COc1ccc(N2C=C(C#N)S(=O)(=O)c3ccc(F)cc32)cc1Cl | 948
50 | COC(=O)c1c(C)[nH]c(C(=O)N2CCC(CC(=O)NCc3ccc4c(c3)OCO4)CC2)c1C | 770
51 | O=C(c1ccc(Br)cc1)N1CCN(C(=O)c2cc(-c3ccncc3)n[nH]2)CC1 | 616
52 | Cc1cccc(Oc2nccnc2Sc2ccccc2C(=O)N2CCN(c3ccccn3)CC2)c1 | 761
53 | COCC(=O)N(CC(=O)N1CCc2sccc2C1COc1ccc(C)cc1C)CC1CCCO1 (stereo not drawn) | 929
54 | CCOc1ccc2nc(NC(=O)c3ccc(N4CCCC4)nn3)sc2c1 | 830
55 | CSc1nc2ccc3nc(NC(=O)c4c(F)cccc4F)sc3c2s1 | 990
56 | COc1cc(-c2nnc(SCc3c(F)cccc3Cl)o2)cc(OC)c1OC | 1070
57 | O=C(COC(=O)c1ccco1)Nc1ccc2c(c1)OCO2 | 688
58 | Cc1ccc(C(=O)Nc2cnc(N3CCCCCC3)nc2)s1 | 910
59 | O=C(c1ccsc1)N1CCCN(c2cc(-c3ccccc3)[nH]n2)CC1 | 741
60 | O=c1c2sccc2n(Cc2nc(-c3cccc(C(F)(F)F)c3)no2)c(=O)n1-c1ccc(F)cc1 | 1070
61 | CN(C)C(=O)c1cn(C2CN(C(=O)c3cccc4[nH]ccc34)C2)nn1 | 608
62 | COc1cccc(-n2c(N3CCCC(C(=O)NCCN4CCCCC4)C3)nc3ccsc3c2=O)c1 (stereo not drawn) | 632
63 | CCCCOC(=O)C1=CN(C)S(=O)(=O)N=C1C | 875

Row | Structure (SMILES) | RP-LC retention time [s]
64 | COc1ccc(C(=O)N2CCc3ccc(C(=O)Nc4ccc5c(c4)OCCO5)cc32)cc1 | 868
65 | COCc1nc2cccnc2n1C1CCN(C(=O)Nc2ccc(Cl)cc2)CC1 | 744
66 | CCCCC(=O)Nc1ccc2nc(N3CCN(CCC#N)CC3)cc(C(=O)O)c2c1 | 570
67 | COc1cc(NC(=O)c2cnn(-c3ccc(Br)cc3)c2)cc(OC)c1OC | 931
68 | COc1ccc(NC(=O)c2cc(S(=O)(=O)N3CCCC(C)C3)cn2C)c(OC)c1 (stereo not drawn) | 1010
69 | Cc1ccc(NC(=O)N2CCc3c(c(-c4nnc(-c5ccc(F)cc5)o4)nn3C)C2)c(Cl)c1 | 944
70 | CCc1ccc(Nc2cc(C(=O)N3CCC(C)CC3)nc3cc(OC)c(OC)cc23)cc1 | 832
71 | Cc1nc(CCNC(=O)C2CCN(C(=O)c3ccc(F)cc3)CC2)cs1 | 826
72 | COc1cc(NC(=O)N2CCN(c3cc(C)nc(N4CCCC4)n3)CC2)cc(OC)c1OC | 634
73 | O=C(NCc1nc(-c2ccc(N3CCCCCC3)cc2)no1)c1ccco1 | 1020
74 | CCc1ccc(Oc2cc(N3CCC(C(=O)NCCCOC)CC3)ncn2)cc1 | 578
75 | O=C(NCC1CCOCC1)c1ccc(Br)cc1 | 708
76 | CC(C)(C)c1ccc(S(=O)(=O)c2nnn(-c3ccc4c(c3)OCCO4)c2N)cc1 | 944
77 | O=C(Nc1ccc2c(c1)C(=O)N1CCCCC1CCO2)c1ccco1 (stereo not drawn) | 692
78 | Cc1ccc(S(=O)(=O)N2CCc3ccc(NC(=O)Cc4cccs4)cc3C2)cc1 | 942
79 | O=C(Nc1nc(-c2ccccc2)cs1)c1ccccc1[N+](=O)[O-] | 947
80 | O=C(NC1CC1)c1cc(N2CCCC2)nc2ccc(F)cc12 | 600
81 | O=C(NC1CC1)c1ccccc1OCC1CCN(C(=O)C2CCCO2)CC1 (stereo not drawn) | 685
82 | COc1ccc(NC(=O)N2CCC(n3c(-c4ccc(OC)cc4)nc4cccnc43)C2)cc1 (stereo not drawn) | 709
83 | CCOc1ccc(Nc2c(-c3ccc(C(=O)O)cc3)nc3cnccn23)cc1 | 729
84 | O=C(Nc1cnc(N2CCCC2)c(C(=O)O)c1)c1ccc(Cl)cc1 | 631
85 | COc1ccc(S(=O)(=O)N2CCCC(C(=O)NC3CCCCCC3)C2)cc1C (stereo not drawn) | 1040
86 | Cc1cc(Nc2nc(C(=O)NCCCN3CCOCC3)cc3occc23)ccc1Br | 724
87 | Cc1ccn2cc(-c3ccc(NC(=O)c4ccco4)cc3)nc2n1 | 596
88 | CCCn1c(C)cnc1C1CN(C(=O)c2ccoc2)C1 | 573
